# Where a SMILES comes first, the peptide text is derived from it. [ ]: non-standard residue; d: D form. The star is where a group is joined. d(aIle) = CC[C@H](C)[C@@H](N)C(=O)O; dDab = NCC[C@@H](N)C(=O)O; Octanoyl = CCCCCCCC(=O)*; Dab = NCC[C@H](N)C(=O)O
# Columns and labels:
# [1] = system: Rabbit red blood cells; test: Hemolysis assay; type: cell-based; conditions: rabbit red blood cells in PBS, 37 °C, 1 h, absorbance at 405 nm, normalization to the Triton X-100 control; 0.25 to 128 μg/mL tested
# Method: Peptides, dissolved in DMSO, were dispensed into 96-well round-bottom microplates using a TECAN D300e dispenser and subsequently diluted with 100 μL of PBS. PBS or 2% Triton X-100 was used as negative and positive controls, respectively. Rabbit red blood cells (BioConcept) were diluted in PBS to a final concentration of 2%, and 100 μL was added to each well of the prepared 96-well plates. The final concentration of the test compounds was 0.25 to 128 μg/mL. Plates were incubated at 37 °C for 1 h and afterward subjected to centrifugation at 1000g for 5 min. Then, 30 μL of supernatant was transferred to a new round-bottom plate, and absorbance was measured at 405 nm (TECAN Infinite F200). EC50s were calculated after blank subtraction and normalization to the Triton control.
# [2] = system: P. aeruginosa PAO1; type: cell-based, Pseudomonas aeruginosa; conditions: PAO1, 20 h
# Method: (§1) All minimum inhibitory concentrations (MICs) were determined according to the Clinical and Standards Laboratory Institute (CLSI) guidelines. In brief, agar plates were inoculated from glycerol stocks and incubated overnight at 35 °C. Peptide DMSO stocks were dispensed into 96-well round-bottom plates using a TECAN D300e dispenser. Colistin sulfate (Sigma-Aldrich) was dissolved in water and serially diluted in a cation-adjusted Mueller Hinton broth (10 μL per well). Final concentrations of the test compounds were 0.06 to 64 μg/mL. Inocula were prepared by direct colony suspension in NaCl at 0.5 MacFarland, which was further diluted 200-fold in cation-adjusted Mueller Hinton broth for a target inoculum of 2 × 10^5 colony forming units (CFUs)/mL. 100 μL portion of the prepared inoculum was added to each well of the prepared plates containing the test compounds. Plates were sealed with parafilm and incubated for 20 h at 35 °C. Images of all plates were recorded, and MIC was assessed visually.
# [3] = system: P. aeruginosa 1218019; type: cell-based, Pseudomonas aeruginosa; conditions: 1218019, 20 h
# Method: as §1
# [4] = system: P. aeruginosa 1226072; type: cell-based, Pseudomonas aeruginosa; conditions: 1226072, 20 h
# Method: as §1
# [5] = system: HepG2 cells; test: Cytotoxicity determination (CellTiter-Glo); type: cell-based; conditions: HepG2, medium without serum, 24 h, normalization to the untreated control, 1 to 128 μg/mL tested
# Method: HepG2 cells were grown in EMEM (Sigma) supplemented with 2 mM glutamine and 10% fetal bovine serum (Fisher) at 37 °C, 5% CO2. 20′000 cells per well were seeded into clear tissue culture-treated 96-well plates and incubated for 24 h. Peptides, dissolved in DMSO, were dispensed into 96 deep well plates (TECAN D300e dispenser) and diluted to a final concentration of 1 to 128 μg/mL using fresh medium without serum. The next day, the old media were removed from the cells, and 200 μL of the prepared compound dilutions was added per well. Plates were incubated for another 24 h before assessing the cell viability using the CellTiter-Glo kit (Promega) according to the manufacturer’s protocol. IC50s were calculated after normalization to the untreated control.
# [6] = system: E. faecalis ATCC 29212; type: cell-based, Enterococcus faecalis; conditions: ATCC 29212, 20 h
# Method: as §1
# [7] = system: ATCC 25922; type: cell-based, Enterococcus faecalis; conditions: ATCC 25922, 20 h
# Method: as §1
# [8] = system: K. pneumoniae 1227947; type: cell-based, Klebsiella pneumoniae; conditions: 1227947, 20 h
# Method: as §1
# [9] = system: K. pneumoniae 1228586; type: cell-based, Klebsiella pneumoniae; conditions: 1228586, 20 h
# Method: as §1
# [10] = system: K. pneumoniae ATCC 13883; type: cell-based, Klebsiella pneumoniae; conditions: ATCC 13883, 20 h
# Method: as §1
# [11] = system: S. aureus 1126387; type: cell-based, Staphylococcus aureus; conditions: 1126387, 20 h
# Method: as §1
# [12] = system: S. aureus ATCC 29213; type: cell-based, Staphylococcus aureus; conditions: ATCC 29213, 20 h
# Method: as §1
# [13] = system: S. aureus UAMS-1625; type: cell-based, Staphylococcus aureus; conditions: S. aureus UAMS-1625 (BV18); CLSI broth dilution, cation-adjusted Mueller Hinton broth, 20 h, 35 °C, read visually
# Method: as §1
# [14] = system: Gram-negative ESKAPE pathogens; type: cell-based; conditions: 20 h
# Method: as §1
# [15] = system: E. faecium IHMA 890472; type: cell-based, Enterococcus faecium; conditions: IHMA 890472, 20 h
# Method: as §1
# [16] = system: E. faecium ATCC 51559; type: cell-based, Enterococcus faecium; conditions: ATCC 51559, 20 h
# Method: as §1
# [17] = system: A. baumannii IHMA 777621; type: cell-based, Acinetobacter baumannii; conditions: IHMA 777621, 20 h
# Method: as §1
# [18] = system: A. baumannii ATCC 17978; type: cell-based, Acinetobacter baumannii; conditions: ATCC 17978, 20 h
# Method: as §1
# [19] = system: A. baumannii HUMC1; type: cell-based, Acinetobacter baumannii; conditions: HUMC1, 20 h
# Method: as §1
# [20] = system: Gram-positive bacteria (Staphylococcus aureus, Enterococcus faecalis, Enterococcus faecium); test: MIC, summary over Gram-positive strains; type: cell-based; conditions: at a concentration of 64 μg/mL; summary of Table 2
# Method: as §1
# [21] = system: E. coli 1220120; type: cell-based, Escherichia coli; conditions: 1220120, 20 h
# Method: as §1
# [22] = system: E. coli 1214245; type: cell-based, Escherichia coli; conditions: 1214245, 20 h
# Method: as §1
# [23] = system: E. coli ATCC 25922; type: cell-based, Escherichia coli; conditions: ATCC 25922, 20 h
# Method: as §1
Compound,Hemolysis EC50 [1] [µg/mL],MIC [2] [µg/mL],MIC [3] [µg/mL],MIC [4] [µg/mL],IC50 on HepG2 w/o FCS [5] [µg/mL],MIC [6] [µg/mL],MIC [7] [µg/mL],MIC [8] [µg/mL],MIC [9] [µg/mL],MIC [10] [µg/mL],MIC [11] [µg/mL],MIC [12] [µg/mL],MIC [13] [µg/mL],MIC [15] [µg/mL],MIC [16] [µg/mL],MIC [17] [µg/mL],MIC [18] [µg/mL],MIC [19] [µg/mL],MIC [21] [µg/mL],MIC [22] [µg/mL],further results
CCCCCCCC(=O)N[C@@H](C(=O)N[C@H](CCN)C(=O)NCC(=O)N[C@H](CO)C(=O)N[C@H](Cc1c[nH]c2ccccc12)C(=O)N[C@@H](CO)C(=O)N[C@@H](CCN)C(=O)N[C@H](CCN)C(=O)N[C@@H](CCN)C(=O)N[C@@H](CCC(=O)O)C(=O)N[C@H](C(=O)N[C@@H](C(=O)N[C@@H](C)C(=O)O)[C@@H](C)CC)C(C)C)C(C)C [Oct-Dab9] (Octanoyl-[dV][dDab]G[dS][dW]S[Dab][dDab][Dab]EV[d(aIle)]A-OH),>128,>64,>64,8,>128,>64,>64,>64,>64,>64,>64,>64,>64,>64,>64,>64,>64,>64,>64,>64,"MICs, range over Gram-negative pathogens [14]: 8 to 64 µg/mL; antibacterial activity against Gram-positive bacteria [20]: no antibacterial activity; MIC [23]: >64 µg/mL"
CCCCCCCC(=O)N[C@@H](C(=O)N[C@H](CCN)C(=O)NCC(=O)N[C@H](CO)C(=O)N[C@H](Cc1c[nH]c2ccccc12)C(=O)N[C@@H](CO)C(=O)N[C@@H](CCN)C(=O)N[C@H](CCN)C(=O)NCC(=O)N[C@@H](CCC(=O)O)C(=O)N[C@H](C(=O)N[C@@H](C(=O)N[C@@H](C)C(=O)O)[C@@H](C)CC)C(C)C)C(C)C [Oct-Gly9] (Octanoyl-[dV][dDab]G[dS][dW]S[Dab][dDab]GEV[d(aIle)]A-OH),>128,64,>64,32,>128,>64,>64,32,8,16,>64,>64,>64,>64,>64,>64,>64,>64,16,16,"MICs, range over Gram-negative pathogens [14]: 8 to 64 µg/mL; antibacterial activity against Gram-positive bacteria [20]: no antibacterial activity; MIC [23]: 16 µg/mL"
CCCCCCCC(=O)N[C@@H](C(=O)N[C@H](CCN)C(=O)NCC(=O)N[C@H](CO)C(=O)N[C@H](Cc1c[nH]c2ccccc12)C(=O)N[C@@H](CO)C(=O)N[C@@H](CCN)C(=O)N[C@H](CCN)C(=O)N[C@@H](CCC(=O)O)C(=O)N[C@@H](CCC(=O)O)C(=O)N[C@H](C(=O)N[C@@H](C(=O)N[C@@H](C)C(=O)O)[C@@H](C)CC)C(C)C)C(C)C [Oct-Glu9] (Octanoyl-[dV][dDab]G[dS][dW]S[Dab][dDab]EEV[d(aIle)]A-OH),>128,>64,>64,>64,>128,>64,>64,>64,>64,>64,>64,>64,>64,>64,>64,>64,>64,>64,64,>64,"MICs, range over Gram-negative pathogens [14]: 8 to 64 µg/mL; antibacterial activity against Gram-positive bacteria [20]: no antibacterial activity; MIC [23]: >64 µg/mL"
CCCCCCCC(=O)N[C@@H](C(=O)N[C@H](CCN)C(=O)NCC(=O)N[C@H](CO)C(=O)N[C@H](Cc1c[nH]c2ccccc12)C(=O)N[C@@H](CO)C(=O)N[C@@H](CCN)C(=O)N[C@H](CCN)C(=O)N[C@H](C(=O)N[C@@H](CCC(=O)O)C(=O)N[C@H](C(=O)N[C@@H](C(=O)N[C@@H](C)C(=O)O)[C@@H](C)CC)C(C)C)C(C)C)C(C)C [Oct-Val9] (Octanoyl-[dV][dDab]G[dS][dW]S[Dab][dDab]VEV[d(aIle)]A-OH),>128,64,16,16,>128,64,>64,8,8,2,>64,>64,>64,>64,64,32,32,32,4,4,MIC [23]: 4 µg/mL

# Source: paper PMC11106739, “Discovery and Derivatization of Tridecaptin Antibiotics with Altered Host Specificity and Enhanced Bioactivity” (ACS Chemical Biology, 2024)
